Data published in ChEMBL document CHEMBL1201862, “PubChem BioAssay data set” (2004).
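Cells were grown in 96-well plates and exposed to each compound for 48 hours at five concentrations; endpoints were interpolated linearly between bracketing concentrations, or set to the highest concentration if not reached. At the GI50, growth is halved.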 The source made the active and inactive calls. No stated cut-off is given here; in the data, active = GI50 up to about 1.1 µM and inactive = higher.

Assays:
Experiment in all cases: growth of human tumour cells (NCI), 48 h
[1] = tested on: LOX IMVI
[2] = tested on: SF-295
[3] = tested on: SF-268
[4] = tested on: EKVX
[5] = tested on: 786-0
[6] = tested on: OVCAR-4
[7] = tested on: HOP-92
[8] = tested on: COLO 205
[9] = tested on: MDA-MB-231
[10] = tested on: SK-MEL-5
[11] = tested on: SK-MEL-2
[12] = tested on: SN12C
[13] = tested on: NCI-H522
[14] = tested on: SW-620
[15] = tested on: UACC-257
[16] = tested on: OVCAR-3
[17] = tested on: HL-60
[18] = tested on: NCI-H460
[19] = tested on: HCC 2998
[20] = tested on: RPMI-8226

Measured: GI50

Nn1c(-c2ccccc2)n[nH]c1=O
inactive: [1] > 100 µM | [2] > 100 µM | [3] > 100 µM | [4] > 100 µM | [5] > 100 µM | [6] > 100 µM | [7] > 100 µM | [8] > 100 µM | [9] > 100 µM | [10] > 100 µM | [11] > 100 µM | [12] > 100 µM | [13] > 100 µM | [14] > 100 µM | [15] > 100 µM | [16] > 100 µM | [17] > 100 µM | [18] > 100 µM | [19] > 100 µM | [20] > 100 µM

[N-]=[N+]=Nc1c([N+](=O)[O-])c(=O)n2c3c(cccc13)CCC2
inactive: [1] 14.4 µM | [2] > 65.5 µM | [3] 13.6 µM | [4] 19.4 µM | [5] 17.1 µM | [6] 13.7 µM | [7] 14 µM | [8] 6.28 µM | [9] 10.6 µM | [10] 16.7 µM | [11] 16.6 µM | [12] 9.77 µM | [13] 2.08 µM | [14] 3.9 µM | [15] 8.15 µM | [16] 17 µM | [17] 2.2 µM | [18] 17.8 µM | [19] 19.1 µM | [20] 3.15 µM

COc1cccc2c1OC1(C=C2)Oc2ccccc2C(=O)N1C (stereo not given)
inactive: [1] 2.05 µM | [2] 22.8 µM | [3] 34.3 µM | [4] 18.4 µM | [5] 35.5 µM | [6] 45.3 µM | [7] 35.2 µM | [8] 31.7 µM | [9] 27.2 µM | [10] 68.1 µM | [11] 54.5 µM | [12] 22.5 µM | [13] 19.1 µM | [14] 42.7 µM | [15] 44.8 µM | [16] 37.8 µM | [17] 19.3 µM | [18] 32.4 µM | [19] 26.7 µM | [20] 27.9 µM

O=c1c2cc(I)ccc2nc(SCc2n[nH]c(=S)o2)n1Cc1ccccc1
inactive: [1] 15.7 µM | [2] 17.3 µM | [3] 17.5 µM | [4] 19.3 µM | [5] 16.7 µM | [6] 18.1 µM | [7] 14.3 µM | [8] 10.6 µM | [9] 17.3 µM | [10] 13.2 µM | [11] 15.6 µM | [12] 14.1 µM | [13] 14.2 µM | [14] 19.7 µM | [15] 18.1 µM | [16] 15.2 µM | [17] 4.71 µM | [18] 19.1 µM | [19] 18.8 µM | [20] 16.3 µM
